± gives the standard deviation of the reports.
Row | Structure (SMILES) | glass transition temperature [°C]
1 | *CC(*)(C)C(=O)OCCCCCCOc1ccc(/N=N/c2ccc(OC)cc2)cc1 (repeat unit) | 91.00
2 | *Oc1ccc(N(c2ccc(OCCCCCC)cc2)c2ccc(-c3ccc(N(c4ccc(*)cc4)c4ccc(OCCCCCC)cc4)cc3)cc2)cc1 (repeat unit) | 105.00
3 | *CC(*)C(=O)NCCCCCC(=O)O (repeat unit) | 68.00
4 | *CC(*)C(=O)OCCCCOc1ccc(/N=N/c2ccc([N+](=O)[O-])cc2)cc1 (repeat unit) | 36.70
5 | *CC(*)(F)C(=O)OCCC(F)(F)C(F)(F)C(F)(F)C(F)(F)F (repeat unit) | 6.00
6 | *CC(O)COc1ccc(C(C)(C)C2CCC(C)(c3ccc(O*)cc3)CC2)cc1 (repeat unit) | 135.00
7 | *CC(*)c1cccc(C)n1 (repeat unit) | 92.00
8 | *Oc1ccc(CC(NC(=O)CCc2ccc(OC(=O)CCCCCCC(*)=O)cc2)C(=O)OCC)cc1 (repeat unit) | 50.00
9 | *CC(O)COc1ccc(C2CCCC(CC)(c3ccc(O*)cc3)C2)cc1 (repeat unit) | 140.00
10 | *CC(*)(C)c1ccccc1 (repeat unit) [poly(alpha-methylstyrene)] | 168.00 ± 140
11 | *C(F)(F)C1(F)C(F)(F)C(*)(F)C(F)(F)C(F)(F)C1(F)F (repeat unit) | 101.00
12 | *CCOCO* (repeat unit) | -64.00
13 | *CC(*)(C)C(=O)OCCN(C)c1ccc(/N=N/c2ccc(/N=N/c3ccc(C#N)cc3)cc2C)cc1 (repeat unit) | 120.00
14 | *Oc1ccc(CNC(=O)CCCCC(=O)NCc2ccc(OC3COC4C(*)COC34)cc2)cc1 (repeat unit) | 116.00
15 | *C(*)C(=O)OCC (repeat unit) | 13.50
16 | */C=C/CCCCCCC(Cl)CCCCCC* (repeat unit) | -57.00
17 | *O[Si](*)(C)CCCCCn1c2ccccc2c2ccccc21 (repeat unit) | 7.00

Row | Structure (SMILES) | glass transition temperature [°C]
18 | *CCCCCCOC(=O)OCCCCCCCCCCOC(=O)OCCCCCCOc1ccc(Oc2ccc(O*)cc2)cc1 (repeat unit) | -22.00
19 | *CCc1ccc(*)s1 (repeat unit) | 26.00
20 | *CCOC(=O)CC(C)O* (repeat unit) | -37.10
21 | *Oc1ccc(-c2ccc(-c3ccc(Oc4ccc(C(c5ccc(*)cc5)(C(F)(F)F)C(F)(F)F)cc4)c(C(F)(F)F)c3)cc2)cc1C(F)(F)F (repeat unit) | 207.50
22 | *CCS* (repeat unit) [Poly(ethylene sulfide)] | -25.83 ± 34
23 | *C1Cc2ccccc2C1* (repeat unit) | 188.50
24 | *CCC(F)(F)C(*)(F)F (repeat unit) | -108.00
25 | *CCCCCC(Cl)C(*)Cl (repeat unit) | -17.00
26 | *CCCCCCCCCCCOC(=O)Nc1ccc(NC(=O)OCCCCCCCCCCCOc2ccc(-c3ccc(O*)cc3)cc2)c(C)c1 (repeat unit) | 77.00
27 | *c1ncnc(N(CCCCCCN(*)c2ccccc2)c2ccccc2)n1 (repeat unit) | 72.00
28 | *OC(COC(=O)C1=C(C(=O)OCC(COC(=O)C2=C(c3ccccc3)C3C=CC2C3)OC(=O)c2ccc(C(*)=O)cc2)C2C=CC1C2)COC(=O)C1=C(c2ccccc2)C2C=CC1C2 (repeat unit) | 74.00
29 | */C=C(\C#N)C(=O)NC1CCCCC1NC(=O)/C(C#N)=C/c1ccc(/C=C/c2ccc(N(CC)Cc3ccccc3CN(CC)c3ccc(/C=C/c4ccc(*)s4)cc3)cc2)s1 (repeat unit) | 195.00
30 | *Oc1ccc(CC(NC(=O)CCc2ccc(OC(=O)CCCCCCC(*)=O)cc2)C(=O)OC(C)C)cc1 (repeat unit) | 46.00
31 | *CC(*)c1ccc(Cl)c([N+](=O)[O-])c1 (repeat unit) | 132.90
32 | *c1cc(CCCC)c(*)s1 (repeat unit) | 54.50 ± 6.4
33 | *Oc1ccc(Cc2ccc(OC(=O)CCCCC(*)=O)cc2)cc1 (repeat unit) | 60.50

Further lines, results first:

Row | glass transition temperature [°C] | Structure (SMILES)
34 | 152.00 | *Oc1ccc(Oc2ccc(C(=O)c3ccc(C(=O)c4ccc(*)cc4)cc3)cc2)cc1 (repeat unit)
35 | 171.00 | *Oc1ccc(C(C)(C)c2ccc(Oc3ccc(C(=O)c4ccc(C(C)(C)c5ccc(C(=O)c6ccc(*)cc6)cc5)cc4)cc3)cc2)cc1 (repeat unit)
36 | 87.50 | *CCCCCCCCCCCCN1C(=O)c2ccc(C(=O)c3ccc4c(c3)C(=O)N(*)C4=O)cc2C1=O (repeat unit)
37 | 202.7 | *c1ccc(Sc2ccc(Sc3ccc(Sc4ccc(N5C(=O)c6ccc(Oc7ccc8c(c7)C(=O)N(*)C8=O)cc6C5=O)cc4)cc3)cc2)cc1 (repeat unit)
38 | 237.00 | *CCC(=O)Nc1ccc(NC(=O)CCN2C(=O)c3ccc(C(=O)c4ccc5c(c4)C(=O)N(*)C5=O)cc3C2=O)cc1 (repeat unit)
39 | 176.00 | *Oc1ccc(Oc2ccc(/C(=N/c3ccc(/N=C(\c4ccccc4)c4ccc(*)cc4)cc3)c3ccccc3)cc2)cc1 (repeat unit)
40 | 94.00 | *CCOC(=O)c1cc(C(=O)O*)cc(C(C)(C)C)c1 (repeat unit)
41 | 188.00 | *CCN(CCOC(=O)Nc1ccc(C)c(NC(=O)O*)c1)c1ccc(/N=N/c2ccc(-c3nc4cc([N+](=O)[O-])ccc4[nH]3)cc2)cc1 (repeat unit)
42 | 326.00 | *c1ccc(Oc2cccc(Oc3ccc(-n4c(=O)c5cc6c(=O)n(*)c(=O)c6cc5c4=O)cc3)c2)cc1 (repeat unit)
43 | 235.00 | *Nc1ccc(Cc2ccc(NC(=O)c3cc(NC(=O)CCN4C(=O)c5ccccc5C4=O)cc(C(*)=O)c3)cc2)cc1 (repeat unit)
44 | 320.00 | *c1ccc(-c2ccc(N3C(=O)c4ccc(S(=O)(=O)c5ccc6c(c5)C(=O)N(*)C6=O)cc4C3=O)cc2C(F)(F)F)c(C(F)(F)F)c1 (repeat unit)
45 | 115.00 | *CCNC(=O)c1ccc([Si](CCCC)(CCCC)c2ccc(C(=O)NCCN(*)c3ccc(/C=C/c4ccc([N+](=O)[O-])cc4)cc3)cc2)cc1 (repeat unit)
46 | 299.00 | *C(=O)Nc1ccc(Oc2ccc(-c3ccc(Oc4ccc(NC(=O)c5ccc6c(c5)C(=O)N(c5ccc(C)c(N7C(=O)c8ccc(*)cc8C7=O)c5)C6=O)cc4)cc3)cc2)cc1 (repeat unit)
47 | 224.00 | *c1ccc(Oc2cccc(Oc3ccc(N4C(=O)c5cccc(Oc6ccc(-c7ccc(Oc8cccc9c8C(=O)N(*)C9=O)cc7)cc6)c5C4=O)cc3)c2)cc1 (repeat unit)
48 | 143.00 | *Oc1cccc(Oc2ccc(C(=O)c3ccc(NC(=O)CCCCCCCCC(=O)Nc4ccc(C(=O)c5ccc(*)cc5)cc4)cc3)cc2)c1 (repeat unit)
49 | 179.00 | *C1C(=O)N(c2cc(Br)c(O[Si](c3ccccc3)(c3ccccc3)c3ccccc3)c(Br)c2)C(=O)C1* (repeat unit)

Row | glass transition temperature [°C] | Structure (SMILES)
50 | 230.00 | *Oc1ccc(Oc2ccc(Oc3ccc(NC(=O)c4cc(C(=O)Nc5ccc(*)cc5)cc(C(C)(C)C)c4)cc3)cc2)cc1 (repeat unit)
51 | 400.00 | *c1ccc(Oc2cccc(-n3c(=O)c4cc5c(=O)n(-c6cccc(Oc7ccc(-c8nc9cc%10sc(*)nc%10cc9s8)cc7)c6)c(=O)c5cc4c3=O)c2)cc1 (repeat unit)
52 | 73.00 | *CC(*)(C)C(=O)NC(=O)OC(C)COc1ccc(S(=O)(=O)c2ccc(OCC(C)O)cc2)cc1 (repeat unit)
53 | 164.00 | *CC(*)(C)C(=O)OCCn1c2ccccc2c2cc(/N=N/c3ccc([N+](=O)[O-])cc3)ccc21 (repeat unit)
54 | 277.00 | *c1ccc(Oc2ccc(N3C(=O)c4cccc(Oc5ccc(-c6ccc(Oc7cccc8c7C(=O)N(*)C8=O)cc6)cc5)c4C3=O)cc2)cc1 (repeat unit)
55 | 303.00 | *C(=O)c1ccc2c(c1)C(=O)N(c1ccc(Oc3c(C)cc(Cc4cc(C)c(Oc5ccc(N6C(=O)c7ccc(*)cc7C6=O)cc5)c(C)c4)cc3C)cc1)C2=O (repeat unit)
56 | 133.00 | *CCCCCCN1C(=O)c2ccc(C(=O)Oc3ccc(-c4ccc(OC(=O)c5ccc6c(c5)C(=O)N(*)C6=O)cc4)cc3)cc2C1=O (repeat unit)
57 | 200.00 | *c1cccc(-n2nc(-c3ccccc3)c3cc(Oc4ccc(C(C)(C)c5ccc(Oc6ccc7c(-c8ccccc8)nn(*)c(=O)c7c6)cc5)cc4)ccc3c2=O)c1C#N (repeat unit)
58 | 264.50 | *C(=O)c1cc(C(=O)c2ccc3c(c2)C(=O)N(c2cccc(N4C(=O)c5ccc(*)cc5C4=O)c2)C3=O)cc(C(C)(C)C)c1 (repeat unit)
59 | 154.00 | *Oc1ccc(Oc2ccc(C(=O)c3cccc(-c4cccc(C(=O)c5ccc(*)cc5)c4)c3)cc2)cc1 (repeat unit)
60 | 219.00 | *c1c(C)cc(C(c2cccnc2)c2cc(C)c(N3C(=O)CC(Nc4ccc(Cc5ccc(NC6CC(=O)N(*)C6=O)cc5)cc4)C3=O)c(C)c2)cc1C (repeat unit)
61 | 294.00 | *Nc1ccc(-c2ccc(NC(=O)c3cccc(C(*)=O)c3)cc2)cc1 (repeat unit)
62 | 215.00 | *c1ccc(C(c2ccc(N(*)c3ccc(C)cc3)cc2)c2ccc([N+](=O)[O-])cc2)cc1 (repeat unit)
63 | 145.00 | *c1cc(C)c(/N=C/c2ccc(OCc3ccc(COc4ccc(/C=N/c5cc(C)c(N6C(=O)c7ccc8c9ccc%10c%11c(ccc(c%12ccc(c7c8%12)C6=O)c%119)C(=O)N(*)C%10=O)cc5C)cc4OC)cc3)c(OC)c2)cc1C (repeat unit)
64 | 327.00 | *c1ccc2c(c1)C(=O)N(c1ccc(S(=O)(=O)c3ccc(S(=O)(=O)c4ccc(S(=O)(=O)c5ccc(N6C(=O)c7ccc(C(*)(C(F)(F)F)C(F)(F)F)cc7C6=O)cc5)cc4)cc3)cc1)C2=O (repeat unit)
65 | 252.00 | *Oc1cccc2ccc(Oc3ccc(NC(=O)c4ccc(C(c5ccc(C(=O)Nc6ccc(*)cc6)cc5)(C(F)(F)F)C(F)(F)F)cc4)cc3)cc12 (repeat unit)
